According to patent US10018637B2, “Methods for treating inflammatory and other diseases and the use of biomarkers as predictors of clinical sensitivity to treatment with apremilast” (CELGENE INTERNATIONAL II SARL, priority 2015, dated 2018):

Tests used:
[1] = test system: ankylosing spondylitis patients; assay: Response of ankylosing spondylitis patients to apremilast treatment, by biomarker-defined patient group; format: in vivo, human
Method: In this example, a group of ankylosing spondylitis patients was identified based on expression profile of 49 biomarkers as being more likely to be responsive to a treatment with apremilast. In particular, Myriad RBM inflammation MAP biomarker panel (having 49 biomarkers) was used to profile 280 patient samples in the study, among which 255 patient samples produced measurable biomarker levels. In these 255 patient samples, 95 patient samples were treated with 20 mg apremilast (“Apremilast 20 mg Arm Group”). Within the Apremilast 20 mg Arm Group, 36 patient samples were responsive to the treatment and 59 patient samples were not responsive to the treatment. 80 patient samples were treated with 30 mg apremilast (“Apremilast 30 mg Arm Group”). Within Apremilast 30 mg Arm Group, 31 patient samples were responsive to the treatment and 49 patient samples were not responsive to the treatment. The remaining 80 patient samples were control samples (placebo arm).
Unsupervised clustering was then used to analyze the biomarker expression profiles for these patient samples based on the 49 biomarkers (consensus clustering/distance (1-PCor)/Ward linkage method). These 49 biomarkers were Alpha-1-Antitrypsin, Alpha-2-Macroglobulin, Beta-2-Microglobulin, Brain-Derived Neurotrophic Factor, C-Reactive Protein, Complement C3, Eotaxin-1, Factor VII, Ferritin, Fibrinogen, Granulocyte-Macrophage Colony-Stimulating Factor, Haptoglobin, Intercellular Adhesion Molecule 1, Interferon gamma, Interleukin-1 alpha, Interleukin-1 beta, Interleukin-1 receptor antagonist, Interleukin-10, Interleukin-12 Subunit p40, Interleukin-12 Subunit p70, Interleukin-15, Interleukin-17, Interleukin-2, Interleukin-23, Interleukin-3, Interleukin-4, Interleukin-5, Interleukin-6, Interleukin-7, Interleukin-8, Macrophage Inflammatory Protein-1 alpha, Macrophage Inflammatory Protein-1 beta, Matrix Metalloproteinase-3, Matrix Metalloproteinase-9, MCP1, Stem Cell Factor, T-Cell-Specific Protein RANTES, Tissue Inhibitor of Metalloproteinases, Tumor Necrosis Factor alpha, Tumor Necrosis Factor beta, Tumor necrosis factor receptor 2, Vascular Cell Adhesion Molecule-1, Vascular Endothelial Growth Factor, Vitamin D-Binding Protein, von Willebrand Factor, Osteoprotegerin, Interleukin-18, RANKL, and Sclerostin.
The results are shown in the plot of FIG. 1A. As shown, a group of 50 patients (cluster 4) were identified as representing about 30% of the total treatment arm population. […] In particular, within this group of 50 patients, the response rate was about 54%, higher than the response rate in the remaining patients which was about 31%.
Each biomarker was then further analyzed for its association with the cluster 4 patient group. MCP1 cytokine was identified as being able to most strongly differentiate the cluster 4 group with the remaining patients. […] The threshold derived from the mid-point (or average) of the median of MCP1 low cluster and the median of non MCP1 low patients was 93.5 pg/ml (see the dash line in the right panel of FIG. 2A).
When the threshold was calculated as the mid-point between median MCP1 level in cluster 4 patient group and median MCP1 level in the remaining patients, the threshold level was 93.5 pg/ml.
A third method used to calculate a MCP1 threshold level was by calculating the mean of thresholds obtained from 10-fold cross validation (discussed above). In particular, each fold provided an optimal threshold according to the AUC metric when classifying for cluster membership. Then, the mean value of the 10 thresholds was calculated. Using this method, the threshold of MCP1 was calculated as 75.63 pg/ml. With this more restrictive learned threshold, the population selected into the MCP1 low group decreased while the response rate of the MCP1 low sub-group increased.

Ankylosing Spondylitis = details: after 24 weeks, largest study trial; placebo 22%; cited from earlier work

| Molecule | patient samples responsive to the treatment ([1]; Apremilast 20 mg Arm Group, 95 patient samples) | patient samples responsive to the treatment ([1]; Apremilast 30 mg Arm Group, 80 patient samples) | response rate ([1]; MCP1 low group, threshold 75.63 pg/ml, apremilast 30 mg arm (22% of the patients)) [%] | response rate ([1]; MCP1 low group, threshold 93.5 pg/ml, apremilast 30 mg arm (45% of the patients)) [%] | response rate ([1]; MCP1 low group, threshold 93.5 pg/ml, both 20 mg and 30 mg arms (36% of the patients)) [%] | response rate ([1]; cluster 4 (MCP1 low patient group), 50 patients, 20 mg or 30 mg apremilast) | response rate ([1]; cluster 4 patients receiving 30 mg apremilast (25 patients)) [%] | patients responded ([1]; cluster 4 patients receiving 30 mg apremilast, out of 25) | response rate ([1]; patient subgroup differentiated by MCP1 level (14% of total population), apremilast arm 20 mg or 30 mg, FIG. 2B) | response rate ([1]; patient subgroup differentiated by MCP1 level (20% of apremilast 30 mg arm), 30 mg apremilast, FIG. 2C) | response rate ([1]; remaining patients (not cluster 4), treatment arms) | response rate ([1]; remaining patients in the Apremilast 30 mg Arm Group (not cluster 4)) [%] | response rate (ASAS 20 response criteria) (Ankylosing Spondylitis) [%] |
| --- | --- | --- | --- | --- | --- | --- | --- | --- | --- | --- | --- | --- | --- |
| CCOc1cc([C@@H](CS(C)(=O)=O)N2C(=O)c3cccc(NC(C)=O)c3C2=O)ccc1OC [apremilast, (+)-2-[1-(3-ethoxy-4-methoxyphenyl)-2-methylsulfonylethyl]-4-acetylaminoisoindoline-1,3-dione] | 36 | 31 | 67 | 56 | 49 | about 54% | 64 | 16 | about 62.5% | about 66.6% | about 31% | 27 |  |
| etanercept |  |  |  |  |  |  |  |  |  |  |  |  | 57 |
